From PubChem BioAssay AID330 (DTP/NCI, 2004)
“And” between values parts separate entries of the source, which are not always exact repeats. Equal values may be shown once. Inconclusive results and toxic doses are left out. How the source made its calls: active means survival T/C of 150% or more; inactive means T/C below 125% in these data.

Tested on: P388 leukemia ip, CD2F1 mice, survival T/C
Assay: NCI In Vivo Anticancer Drug Screen. Data for tumor model P388 Leukemia (intraperitoneal) in CD2F1 (CDF1) mice
Settings: endpoint: median survival time, higher = longer survival
Outline: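 Mice carrying the transplanted tumor received test compound or vehicle. Survival was recorded in each group, and the value is the treated-group measurement divided by that of the vehicle-treated control group.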

[1] = dose: 50.0 mg/kg/injection, schedule: Q01DX009 (ip), vehicle: Klucel (hydroxypropylcellulose) (HPC)
[2] = dose: 100.0 mg/kg/injection, schedule: Q01DX009 (ip), vehicle: Klucel (hydroxypropylcellulose) (HPC)
[3] = dose: 200.0 mg/kg/injection, schedule: Q01DX009 (ip), vehicle: Klucel (hydroxypropylcellulose) (HPC)
[4] = dose: 6.25 mg/kg/injection, schedule: Q01DX005 (ip), vehicle: Klucel (hydroxypropylcellulose) (HPC)
[5] = dose: 12.5 mg/kg/injection, schedule: Q01DX005 (ip), vehicle: Klucel (hydroxypropylcellulose) (HPC)
[6] = dose: 50.0 mg/kg/injection, schedule: Q01DX009 (ip), vehicle: saline
[7] = dose: 100.0 mg/kg/injection, schedule: Q01DX009 (ip), vehicle: saline
[8] = dose: 200.0 mg/kg/injection, schedule: Q01DX009 (ip), vehicle: saline
[9] = dose: 50.0 mg/kg/injection, schedule: Q01DX009 (ip), vehicle: saline with Tween-80
[10] = dose: 100.0 mg/kg/injection, schedule: Q01DX009 (ip), vehicle: saline with Tween-80
[11] = dose: 50.0 mg/kg/injection, schedule: Q01DX005 (ip), vehicle: saline with Tween-80
[12] = dose: 100.0 mg/kg/injection, schedule: Q01DX005 (ip), vehicle: saline with Tween-80
[13] = dose: 200.0 mg/kg/injection, schedule: Q01DX005 (ip), vehicle: saline with Tween-80

Measured: T/C

C=C1CC/C=C(\C)CCC2C1CC2(C)C (configuration not stated)
inactive: dose: 12.5 mg/kg/injection, schedule: Q01DX009 (ip), vehicle: Klucel (hydroxypropylcellulose) (HPC) 100 % of control | dose: 25.0 mg/kg/injection, schedule: Q01DX009 (ip), vehicle: Klucel (hydroxypropylcellulose) (HPC) 100 % of control | [1] 102 % of control | [2] 105 % of control | [3] 113 % of control

Cc1cc2nc3cc(C)c(N)cc3[n+](-c3ccccc3)c2cc1N
inactive: [4] 109 % of control | [5] 116 % of control

CC1(C)OC2(CC1C1(C)C=CC(=O)O1)CC1(O)C(CCC34CC13C(=O)OC4c1ccoc1)O2 (configuration not stated)
inactive: [6] 97 % of control | [7] 90 % of control | [8] 90 % of control

CS(=O)(=O)C(c1nc2n(c1O)/C(=N/C(=O)Nc1ccc(Cl)cc1)N=N2)c1nc2n(c1O)/C(=N/C(=O)Nc1ccc(Cl)cc1)N=N2
inactive: dose: 60.0 mg/kg/injection, schedule: Q01DX005 (ip), vehicle: saline 97 % of control | dose: 120.0 mg/kg/injection, schedule: Q01DX005 (ip), vehicle: saline 96 % of control | dose: 240.0 mg/kg/injection, schedule: Q01DX005 (ip), vehicle: saline 95 % of control

Oc1ccccc1C=Nc1ccccc1N=Cc1ccccc1O.[Zn]
inactive: [1] 97 % of control | [2] 98 % of control | [3] 95 % of control

Oc1ccccc1C1=NC(c2ccccc2)NC(c2ccccc2)C1 (configuration not stated)
inactive: [9] 88 % of control | [10] 93 % of control

O=C1CSC(=S)N1c1ccc(F)cc1F
inactive: dose: 50.0 mg/kg/injection, schedule: Q01DX009 (ip), vehicle: suspension in saline 97 % of control | dose: 100.0 mg/kg/injection, schedule: Q01DX009 (ip), vehicle: suspension in saline 100 % of control | dose: 200.0 mg/kg/injection, schedule: Q01DX009 (ip), vehicle: suspension in saline 100 % of control

O=C1OC(c2ccccc2)(c2ccccc2)CC12CC(c1ccccc1)(c1ccccc1)OC2=O
inactive: [11] 91 % of control | [12] 94 % of control

Cc1ccc(-n2c(=S)n(-c3ccccc3C)c3nc4ccccc4nc2/c3=N\Nc2ccccc2)cc1
inactive: dose: 60.0 mg/kg/injection, schedule: Q01DX005 (ip), vehicle: saline with Tween-80 100 % of control | dose: 120.0 mg/kg/injection, schedule: Q01DX005 (ip), vehicle: saline with Tween-80 93 % of control

COc1ccc2c(c1OC)C(N1CCc3cc4c(cc3C1=O)OCO4)OC2=O (configuration not stated)
inactive: dose: 12.5 mg/kg/injection, schedule: Q01DX001 (ip), vehicle: saline + alcohol 89 % of control | dose: 25.0 mg/kg/injection, schedule: Q01DX001 (ip), vehicle: saline + alcohol 87 % of control | dose: 50.0 mg/kg/injection, schedule: Q01DX001 (ip), vehicle: saline + alcohol 87 % of control

Cc1ccc(S(=O)(=O)OC2C(OCc3ccccc3)C(OCc3ccccc3)C3CON(C)C32)cc1 (configuration not stated)
inactive: dose: 50.0 mg/kg/injection, schedule: Q01DX005 (ip), vehicle: Klucel (hydroxypropylcellulose) (HPC) 86 % of control | dose: 100.0 mg/kg/injection, schedule: Q01DX005 (ip), vehicle: Klucel (hydroxypropylcellulose) (HPC) 89 % of control | dose: 200.0 mg/kg/injection, schedule: Q01DX005 (ip), vehicle: Klucel (hydroxypropylcellulose) (HPC) 92 % of control

Cc1cc[c]([Sn]([Cl])([O][Sn]([Cl])([c]2ccc(C)cc2)[c]2ccc(C)cc2)[c]2ccc(C)cc2)cc1
inactive: dose: 1.56 mg/kg/injection, schedule: Q01DX005 (ip), vehicle: Klucel (hydroxypropylcellulose) (HPC) 105 % of control | dose: 3.12 mg/kg/injection, schedule: Q01DX005 (ip), vehicle: Klucel (hydroxypropylcellulose) (HPC) 96 % of control | dose: 3.12 mg/kg/injection, schedule: Q01DX005 (ip), vehicle: saline 115 % of control | [4] 94 % of control | dose: 6.25 mg/kg/injection, schedule: Q01DX005 (ip), vehicle: saline 118 % of control | [5] 99 % of control

CSC(=S)/C=C(\O)c1ccccc1
inactive: dose: 100.0 mg/kg/injection, schedule: Q04DX003 (ip), vehicle: saline 95 % of control | dose: 200.0 mg/kg/injection, schedule: Q04DX003 (ip), vehicle: saline 104 % of control

CCCCN(CCCC)P1(=O)OP(=O)(N(CCCC)CCCC)OP(=O)(N(CCCC)CCCC)O1 (configuration not stated)
inactive: dose: 12.5 mg/kg/injection, schedule: Q01DX005 (ip), vehicle: saline 97 % of control | dose: 25.0 mg/kg/injection, schedule: Q01DX005 (ip), vehicle: saline 101 % of control | dose: 50.0 mg/kg/injection, schedule: Q01DX005 (ip), vehicle: saline 101 % of control and 96 % of control

CCn1nnnc1-c1ccccc1
inactive: dose: 100.0 mg/kg/injection, schedule: Q01DX001 (ip), vehicle: Klucel (hydroxypropylcellulose) (HPC) 91 % of control | dose: 200.0 mg/kg/injection, schedule: Q01DX001 (ip), vehicle: Klucel (hydroxypropylcellulose) (HPC) 88 % of control | dose: 400.0 mg/kg/injection, schedule: Q01DX001 (ip), vehicle: Klucel (hydroxypropylcellulose) (HPC) 91 % of control

Cc1ccnc(N)c1N
inactive: dose: 3.13 mg/kg/injection, schedule: Q01DX009 (ip), vehicle: other 89 % of control | dose: 6.25 mg/kg/injection, schedule: Q01DX009 (ip), vehicle: other 96 % of control | dose: 12.5 mg/kg/injection, schedule: Q01DX009 (ip), vehicle: other 109 % of control

CC(C)NNC(=O)c1ccncc1
inactive: dose: 12.5 mg/kg/injection, schedule: Q01DX009 (ip), vehicle: saline 96 % of control | dose: 25.0 mg/kg/injection, schedule: Q01DX009 (ip), vehicle: saline 101 % of control | [6] 103 % of control | [7] 96 % of control | [8] 98 % of control | dose: 400.0 mg/kg/injection, schedule: Q01DX009 (ip), vehicle: saline 64 % of control

CNC(=O)OCc1c(COC(=O)NC)c2n(c1-c1ccc(Cl)c(Cl)c1)CCS2(=O)=O
inactive: dose: 25.0 mg/kg/injection, schedule: Q01DX005 (ip), vehicle: saline with Tween-80 108 % of control | [11] 92 % of control | [12] 88 % of control | [13] 92 % of control

CC(C)(C)C(=O)CC(=O)C(C)(C)C.CC(C)(C)C(=O)CC(=O)C(C)(C)C.[Cu]
inactive: dose: 4.75 mg/kg/injection, schedule: Q01DX009 (ip), vehicle: saline with Tween-80 104 % of control | dose: 9.5 mg/kg/injection, schedule: Q01DX009 (ip), vehicle: saline with Tween-80 95 % of control | dose: 19.0 mg/kg/injection, schedule: Q01DX009 (ip), vehicle: saline with Tween-80 95 % of control

O=S(=O)(c1ccc(Br)cc1)S(=O)(=O)c1ccc(Br)cc1
inactive: [6] 87 % of control | [7] 92 % of control | [8] 95 % of control

O=C1c2ccccc2CN1Cc1ccc(Cl)c(Cl)c1
inactive: [9] 96 % of control | [10] 89 % of control | dose: 200.0 mg/kg/injection, schedule: Q01DX009 (ip), vehicle: saline with Tween-80 91 % of control

C/C=C\C(/C=C/C)(C(=O)OCCN(C)C)C(/C=C\C)(/C=C/C)C(=O)OCCN(C)C (configuration not stated)
inactive: [11] 100 % of control | [12] 100 % of control | [13] 91 % of control

N=C(N)c1ccc(-c2ccc(-c3ccc(C(=N)N)cc3)o2)cc1
inactive: dose: 3.13 mg/kg/injection, schedule: Q01DX009 (ip), vehicle: saline with Tween-80 94 % of control | dose: 6.25 mg/kg/injection, schedule: Q01DX009 (ip), vehicle: saline with Tween-80 102 % of control
